Experiments:
[1] = Solubility of scalp actives; type: physicochemical
[2] = cited from earlier work

Row | Oil solubility [1] | Water solubility ([1]; at pH of 4.8 and above) | SMILES | Solubility in water [2]
1 | oil soluble | – | CC1CCC(C(C)C)C(O)C1 (stereo not shown) [menthol] | –
2 | oil soluble | – | Cc1cc(CC(C)CC(C)(C)C)n(O)c(=O)c1.NCCO (stereo not shown) [piroctone olamine] | very limited solubility
3 | – | water soluble | O=C(O)c1ccccc1O [salicylic acid] | –

Reference: patent US20250195357A1, “CLEAR SCALP COMPOSITION WITH DISCRETE PARTICLES” (The Procter & Gamble Company, priority 2022, published 2025)
